From PMC7397056, “Design, Facile Synthesis and Characterization of Dichloro Substituted Chalcones and Dihydropyrazole Derivatives for Their Antifungal, Antitubercular and Antiproliferative Activities” (Molecules, 2020) come the findings set out here.

A word on the MIC: it is the lowest concentration found to suppress growth. Usually IC50 stands for the concentration that inhibits the measured activity by half. A low value points to greater potency in that assay. The melting point is the temperature, or range, at which the solid turns liquid.

Converted amounts (≈) assume the structure as drawn.

The subject of series [1] is Mycobacterium tuberculosis H37Rv. Description: Antitubercular activity, broth dilution assay (MIC). It counts as cell-based. To be noted: for MIC: Mycobacterium tuberculosis, H37RV, 504 h, Middlebrook 7H9 broth, 37 °C, 21 days. Background: Broth dilution looks for growth in wells or tubes with falling amounts of substance.
Series [2] deals with prostate cancer cell lines (DU-145). Description: Antiproliferative activity, MTT assay. The series is classed as cell-based. To be noted: Homo sapiens, 48 h, mean ± SD (n = 3). As for the experimental part:
(§1) The antiproliferative activity of the compounds was determined their IC50 values. Methotrexate (Mtx; positive control) was used as a reference standard for comparing the antiproliferative activity of the target compounds. The MTT (3-(4,5-dimethylthiazol-2-yl)-2,5-diphenyl tetrazolium bromide) assay was based on the reduction of the soluble MTT (0.5 mg mL^−1, 100 µL) into a blue-purple formazan product, mainly by the activity of mitochondrial reductase enzymes inside the living cells. The prostate cancer cell lines, DU-145 cells, were cultured in Dulbecco’s Modified Eagle Medium (DMEM) media at 37 °C and humidified at 5% CO2. Stock solutions of the test compounds (17–46) were prepared in 0.1% DMSO followed by dilution with sterile water to obtain the desired final concentrations. Briefly, the cells were placed on 96-well plates at 100 µL total volume with the density of 1 × 10^4 cells per well and were allowed to adhere for 24 h. Then the medium was replaced with fresh media containing different dilutions of the test compounds and incubated for additional 48 h at 37 °C in DMEM with 10% fetal bovine serum (FBS) medium. Subsequently, the medium was replaced with 90 μL of fresh DMEM without FBS. The above wells were treated with 10 μL of MTT reagent (5 mg/mL of stock solution in DMEM without FBS) and incubated at 37 °C for 3–4 h. The formed blue formazan crystals were dissolved in 200 μL of DMSO. The optical density was determined at 570 nm using a micro plate reader. The assay was performed in triplicate for three independent experiments. The same experimentation was also done to confirm that the DMSO (negative control) had no effect in the study. The results had good reproducibility between replicate wells with standard errors below 10%. The antiproliferative activity results measured as IC50 values in µg/mL were converted and expressed in µM. Additionally, the cytotoxic activity of the compounds was also measured employing the same protocol discussed above to assess their toxicity on normal human cell lines (L02).
A general note: Tetrazolium dyes change colour on reduction, which living cells bring about.

Series [3] is described as follows: Cytotoxic activity on normal cells, MTT assay. It counts as cell-based. To be noted: L02 cells (normal human cell line). As for the experimental part: as §1
Series [4] concerns Aspergillus niger (ATCC-6275). The series is described as follows: Antifungal activity, serial tube dilution method (MIC). The settings on record: for MIC: Aspergillus niger, ATCC6275, 18 h, read-out: Antifungal activity MIC, A. niger, serial tube dilution, 37 °C, 18 h, average of three.
The test system of series [5] is Candida tropicalis (ATCC-1369). The description is as above. To be noted: for MIC: Candida tropicalis, ATCC1369, 18 h, read-out: Antifungal activity MIC, C. tropicalis, serial tube dilution, 37 °C, 18 h, average of three.
Where [6] appears, read: serial tube dilution, 37 °C, 18 h, average of three.

Consider `Cc1ccc(/C=C/C(=O)c2ccc(Cl)c(Cl)c2)cc1` [Compound 2], for which the results for the MIC in series [1], in series [4] and in series [5] were 343 µM (≈ 100 µg/mL), 110 µM (≈ 32 µg/mL) and 110 µM (≈ 32 µg/mL), respectively. Also, the concentration for half-maximal inhibition (IC50) in series [2] was 432 ± 2 µM. The IC50 at 48 h in series [3] is > 50 µg/mL.

Turning to `O=C(/C=C/c1ccc(F)cc1)c1ccc(Cl)c(Cl)c1` [Compound 3], the MIC was 84.7 µM (≈ 25 µg/mL) in series [1], 54.2 µM (≈ 16 µg/mL) in series [4] and 54.2 µM (≈ 16 µg/mL) in series [5]. The IC50 in series [2] amounted to 176 ± 2 µM. Also, the IC50 at 48 h in series [3] was > 50 µg/mL.

Turning to `O=C(/C=C/c1ccccc1F)c1ccc(Cl)c(Cl)c1` [Compound 4], the MIC in series [1] was 84.7 µM (≈ 25 µg/mL); in series [4], 27.1 µM (≈ 8 µg/mL); in series [5] it was 54.2 µM (≈ 16 µg/mL). Besides, half-maximal inhibition in series [2] (IC50) required 393 ± 2 µM. Besides, the IC50 at 48 h in series [3] is > 50 µg/mL.

Take `O=C(/C=C/c1ccc(Cl)cc1)c1ccc(Cl)c(Cl)c1` [Compound 5]: the values for the MIC in series [1], in series [4] and in series [5] were 80.2 µM (≈ 25 µg/mL), 25.7 µM (≈ 8 µg/mL) and 51.3 µM (≈ 16 µg/mL), respectively. Moreover, the IC50 in series [2] came to 147 ± 2 µM. The IC50 at 48 h in series [3] is > 50 µg/mL.

`O=C(/C=C/c1ccccc1Cl)c1ccc(Cl)c(Cl)c1` [Compound 6]: the MIC in series [1] was found to be 20.1 µM (≈ 6.25 µg/mL); in series [4], 25.7 µM (≈ 8 µg/mL); in series [5], 51.3 µM (≈ 16 µg/mL). This molecule also yielded a half-inhibitory concentration (IC50) in series [2] of 141 ± 2 µM. Besides, the IC50 at 48 h in series [3] is > 50 µg/mL.

Molecule `O=C(/C=C/c1ccc(F)cc1F)c1ccc(Cl)c(Cl)c1` [Compound 7, (E)-1-(3,4-dichlorophenyl)-3-(2,4-difluorophenyl)prop-2-en-1-one] showed a melting point of 265 °C. The molecule further displayed an MIC in series [1] of 9.96 µM (≈ 3.12 µg/mL). Moreover, in series [2], inhibition was half-maximal at 31 ± 2 µM (IC50). Moreover, the IC50 at 48 h in series [3] is > 50 µg/mL. Besides, the minimum inhibitory concentration (MIC) in series [4] worked out at 25.5 µM (≈ 8 µg/mL). In series [5], the MIC was 51.1 µM (≈ 16 µg/mL).

As to `O=C(/C=C/c1ccc(Cl)cc1Cl)c1ccc(Cl)c(Cl)c1` [Compound 8, (E)-1-(3,4-dichlorophenyl)-3-(2,4-dichlorophenyl)prop-2-en-1-one], the melting point was determined as 299 °C. In series [1], this molecule returned an MIC of 18.1 µM (≈ 6.25 µg/mL). The molecule also showed a half-inhibitory concentration (IC50) in series [2] of 254 ± 2 µM. Besides, the IC50 at 48 h in series [3] is > 50 µg/mL. Also, the MIC in series [4] was found to be 23.1 µM (≈ 8 µg/mL). Further, the MIC in series [5] turned out to be 46.2 µM (≈ 16 µg/mL).

On to `O=C(/C=C/c1ccc(C(F)(F)F)cc1)c1ccc(Cl)c(Cl)c1` [Compound 9, (E)-1-(3,4-dichlorophenyl)-3-(4-trifluoromethylphenyl)prop-2-en-1-one], for which the melting point turned out to be 169 °C. In series [1], the MIC worked out at 9.03 µM (≈ 3.12 µg/mL). For the same molecule, the “fold improvement in antitubercular activity vs. compound 2” value in series [1] (comparator compound 2 (MIC 343.44 µM)) was “approximately 40 fold”. In addition, the “fold better activity than the standard pyrazinamide” value in series [1] (ratio of MICs vs pyrazinamide (MIC 25.34 µM)) is 2.8 fold. The IC50 in series [2] came out at 292 ± 1 µM. Besides, the IC50 at 48 h in series [3] is > 50 µg/mL. The MIC in series [4] was found to be 11.6 µM (≈ 4 µg/mL). Besides, the MIC in series [5] turned out to be 11.6 µM (≈ 4 µg/mL).

On to `O=C(/C=C/c1ccc2c(c1)OCO2)c1ccc(Cl)c(Cl)c1` [Compound 10], for which the MIC was determined as 72.2 µM (≈ 23.2 µg/mL) in series [1], 23 µM (≈ 7.39 µg/mL) in series [4] and 180 µM (≈ 57.8 µg/mL) in series [5]. Besides, the IC50 in series [2] turned out to be 138 ± 2 µM. The IC50 at 48 h in series [3] is > 50 µg/mL. The “Antifungal activity MIC, A. niger” value in series [4] (setting [6]) turned out to be 23.11 µM. For the same molecule, the “Antifungal activity MIC, C. tropicalis” value in series [5] (setting [6]) turned out to be 180.62 µM.

As for `O=C(/C=C/c1ccccn1)c1ccc(Cl)c(Cl)c1` [Compound 11, (E)-1-(3,4-dichlorophenyl)-3-(pyridin-2-yl)prop-2-en-1-one], the melting point amounted to 156 °C. Further, inhibition of growth in series [1] (MIC) required 45.1 µM (≈ 12.5 µg/mL). The molecule also yielded an IC50 in series [2] of 353 ± 2 µM. Besides, in series [3], the IC50 at 48 h was > 50 µg/mL. For the same molecule, in series [4], the MIC turned out to be 28.9 µM (≈ 8.03 µg/mL). Further, in series [5], the MIC was 28.9 µM (≈ 8.03 µg/mL).

Take `O=C(/C=C/c1ccncc1)c1ccc(Cl)c(Cl)c1` [Compound 13]: the minimum inhibitory concentration (MIC) was 45.1 µM (≈ 12.5 µg/mL) in series [1], 57.8 µM (≈ 16.1 µg/mL) in series [4] and 113 µM (≈ 31.4 µg/mL) in series [5]. In series [2], this molecule gave an IC50 of 209 ± 2 µM. In series [3], the IC50 at 48 h is > 50 µg/mL.

Regarding `OC(Cn1cncn1)(Cn1cncn1)c1ccc(F)cc1F` [Fluconazole, reference compound], the minimal inhibitory concentration (MIC) worked out at 26.1 µM (≈ 8 µg/mL) in series [4] and 19.6 µM (≈ 6 µg/mL) in series [5].

On to `NC(=O)c1cnccn1` [Pyrazinamide, reference compound], for which 25.3 µM (≈ 3.12 µg/mL) was the least that counted as inhibitory in series [1] (MIC).
